Here are results for two compounds from ChEMBL document CHEMBL1156897, “New potential antitumor compounds from the plant Aristolochia manshuriensis as inhibitors of the CDK2 enzyme” (Bioorg Med Chem Lett, 2010).

Usually IC50 stands for the concentration at which inhibition is half-maximal. Higher therefore signals weaker potency.

The target of assay [1] is Cyclin-dependent kinase 2 (Homo sapiens, UniProt P24941). Description: Inhibition of CDK2.
In assay [2] the target is Cyclin-dependent kinase 4 (Homo sapiens, UniProt P11802). Description: Inhibition of CDK4.
For assay [3], the target named is Cyclin-dependent kinase 1 (Homo sapiens, UniProt P06493). Put plainly: Inhibition of CDC2.
The nature of assay [4]: Inhibition of MAPK.

Sequence of Cyclin-dependent kinase 1 (P06493 whole entry): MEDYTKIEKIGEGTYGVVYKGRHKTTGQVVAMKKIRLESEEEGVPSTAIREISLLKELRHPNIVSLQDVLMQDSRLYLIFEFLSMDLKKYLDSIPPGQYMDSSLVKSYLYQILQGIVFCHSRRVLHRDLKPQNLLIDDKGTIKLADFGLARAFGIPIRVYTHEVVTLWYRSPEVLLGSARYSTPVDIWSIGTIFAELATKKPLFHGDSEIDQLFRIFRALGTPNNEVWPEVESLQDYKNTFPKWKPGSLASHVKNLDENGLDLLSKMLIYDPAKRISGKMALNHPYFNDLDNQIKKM
Sequence of Cyclin-dependent kinase 4 (P11802 whole entry): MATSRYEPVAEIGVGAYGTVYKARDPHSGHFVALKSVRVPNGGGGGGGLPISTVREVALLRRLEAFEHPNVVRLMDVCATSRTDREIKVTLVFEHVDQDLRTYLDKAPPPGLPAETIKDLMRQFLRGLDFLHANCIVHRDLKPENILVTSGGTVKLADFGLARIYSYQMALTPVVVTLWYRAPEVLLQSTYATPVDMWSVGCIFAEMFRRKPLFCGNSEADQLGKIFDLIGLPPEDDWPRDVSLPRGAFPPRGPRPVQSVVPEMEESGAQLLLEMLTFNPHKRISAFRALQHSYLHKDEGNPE

In the case of `O=C1Nc2cc3c(O[C@@H]4O[C@H](CO)[C@@H](O)[C@H](O)[C@H]4O)cccc3c3c4c(cc1c23)OCO4`, the IC50 in assay [1] was more than 10000 nM.
Regarding `COc1c(O)cc2c3c(cc4ccc(O)cc4c13)NC2=O` [ARISTOLACTAM AIIIA], the IC50 stood at 1420 nM in assay [2], 214 nM in assay [3], 140 nM in assay [1] and 35.3 µM in assay [4].
